Patent US10561672B2, “Stable fixed dose pharmaceutical composition comprising mometasone and olopatadine” (GLENMARK SPECIALTY S.A., priority 2013, dated 2020)

Tests used:
[1] = Clinical trial, single-dose cross-over: pharmacokinetics of mometasone furoate (Example 6); type: in vivo; settings: single dose nasal spray, human subjects
Excerpt: (§1) The clinical trial was a randomized, single-center, single-dose, open-label, three-period, six-sequence, cross-over study to evaluate three treatments administered by nasal spray. […] The study consisted of a screening visit, 3 single-dose treatment periods with washout periods of 7 to 14 days between dosing in each treatment period, an early withdrawal visit if applicable, and a follow-up telephone call (or visit) 1 to 7 days after completing the third treatment period. A total of 30 subjects were randomized to 1 of 6 treatment sequences and received at least 1 dose of study drug. All 30 subjects were included in the safety analysis set and the pharmacokinetic subset. All but 2 subjects completed the study per protocol.

[2] = Clinical trial, single-dose cross-over: pharmacokinetics of olopatadine (Example 5); type: in vivo; settings: single dose nasal spray, human subjects
Excerpt: as §1, with “as a” for “by”

Quantifiable concentrations observed until the last time point [1] [h]	Quantifiable concentrations observed until the last time point [2] [h]	SMILES
72	–	C[C@@H]1C[C@H]2[C@@H]3CCC4=CC(=O)C=C[C@]4(C)[C@@]3(Cl)[C@@H](O)C[C@]2(C)[C@@]1(OC(=O)c1ccco1)C(=O)CCl [mometasone furoate]
–	48	CN(C)CC/C=C1/c2ccccc2COc2ccc(CC(=O)O)cc21 [olopatadine]
